We go through 19 compounds from patent US11339128B2 (Firmenich Incorporated, priority 2014, dated 2022).

The assay concerns the target T1, T1R2/T1R3 taste receptor (Homo sapiens, UniProt Q7RTX0+Q8TE23).
T1 sequence (Q8TE23 20-839): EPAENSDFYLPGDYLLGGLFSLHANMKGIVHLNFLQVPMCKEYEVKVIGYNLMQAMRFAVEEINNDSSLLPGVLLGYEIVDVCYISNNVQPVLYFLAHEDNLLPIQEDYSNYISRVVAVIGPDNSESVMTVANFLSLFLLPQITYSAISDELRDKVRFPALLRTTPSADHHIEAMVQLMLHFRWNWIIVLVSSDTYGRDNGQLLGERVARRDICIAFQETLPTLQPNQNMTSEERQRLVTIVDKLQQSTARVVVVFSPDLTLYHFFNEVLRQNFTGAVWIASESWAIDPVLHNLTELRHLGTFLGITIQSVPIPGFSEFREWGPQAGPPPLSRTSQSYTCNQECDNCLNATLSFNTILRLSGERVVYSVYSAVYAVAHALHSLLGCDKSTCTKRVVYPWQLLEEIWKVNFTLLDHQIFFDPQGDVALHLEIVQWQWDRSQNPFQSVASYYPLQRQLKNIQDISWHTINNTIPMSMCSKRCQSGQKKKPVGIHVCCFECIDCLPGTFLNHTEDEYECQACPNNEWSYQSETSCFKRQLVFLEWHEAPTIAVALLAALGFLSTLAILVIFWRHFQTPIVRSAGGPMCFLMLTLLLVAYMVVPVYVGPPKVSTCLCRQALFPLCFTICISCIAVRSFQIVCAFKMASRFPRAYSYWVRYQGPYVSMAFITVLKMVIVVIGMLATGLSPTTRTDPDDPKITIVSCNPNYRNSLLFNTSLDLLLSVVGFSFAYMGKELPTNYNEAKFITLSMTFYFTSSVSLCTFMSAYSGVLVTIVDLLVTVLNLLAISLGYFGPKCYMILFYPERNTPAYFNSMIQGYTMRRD
T1 sequence (Q7RTX0 21-852): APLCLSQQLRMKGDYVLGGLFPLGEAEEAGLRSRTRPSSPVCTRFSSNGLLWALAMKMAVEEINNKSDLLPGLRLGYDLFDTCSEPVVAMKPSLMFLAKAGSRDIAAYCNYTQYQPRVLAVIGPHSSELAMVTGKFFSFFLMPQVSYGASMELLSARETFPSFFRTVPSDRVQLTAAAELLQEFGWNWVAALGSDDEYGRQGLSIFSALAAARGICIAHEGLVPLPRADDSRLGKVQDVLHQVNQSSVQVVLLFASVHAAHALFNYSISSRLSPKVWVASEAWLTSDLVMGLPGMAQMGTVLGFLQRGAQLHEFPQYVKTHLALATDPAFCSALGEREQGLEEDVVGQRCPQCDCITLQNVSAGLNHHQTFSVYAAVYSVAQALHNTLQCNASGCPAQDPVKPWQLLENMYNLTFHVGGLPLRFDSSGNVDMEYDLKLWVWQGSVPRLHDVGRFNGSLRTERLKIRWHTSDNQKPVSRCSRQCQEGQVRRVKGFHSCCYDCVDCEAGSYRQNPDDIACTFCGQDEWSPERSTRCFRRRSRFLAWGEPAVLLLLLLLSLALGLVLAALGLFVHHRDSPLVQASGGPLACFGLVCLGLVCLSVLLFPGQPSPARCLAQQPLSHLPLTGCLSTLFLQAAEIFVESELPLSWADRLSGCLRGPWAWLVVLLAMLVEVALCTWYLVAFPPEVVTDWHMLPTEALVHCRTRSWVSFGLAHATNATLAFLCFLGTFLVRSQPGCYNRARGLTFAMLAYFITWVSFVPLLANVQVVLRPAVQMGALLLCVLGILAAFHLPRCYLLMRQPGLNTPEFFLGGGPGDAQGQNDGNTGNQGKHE
Nature of the assay: Receptor-based assay: sweetener EC50 enhancement ratio with and without test compound. It is filed as cell-based. The conditions noted are these: for Sucrose Enhancement EC50 Ratio: sweetener sucrose; for Sucralose Enhancement EC50 Ratio: sweetener sucralose. The protocol: Potencies (EC50 values) for the sweeteners sucrose, sucralose, and fructose were measured against the T1R2/T1R3 taste receptor. EC50 was determined using the sweetener alone and in the presence of 1 μM, 3 μM, 10 μM, or 50 μM of test compound. EC50 ratios were calculated by the ratio of potency with and without the test compound. An “A” value indicates an enhancement ratio of greater than 1 and less than 10. A “B” value indicates an enhancement ratio from 10 to 20. A “C” value indicates an enhancement ratio greater than 20.

For the compound `Cc1nc2cccc(O[C@H]3CC[C@@H](C)CC3)c2c(N)c1C(=O)O` [Compound 102], the “Sucrose Enhancement EC50 Ratio” value is “A (an enhancement ratio of greater than 1 and less than 10)” (1 μM test compound); “A (an enhancement ratio of greater than 1 and less than 10)” (3 μM test compound); “B (an enhancement ratio from 10 to 20)” (10 μM test compound).
As to `Cc1nc2cccc(OC3CCC(C)(C)CC3)c2c(N)c1C(=O)O` [Compound 103], the “Sucrose Enhancement EC50 Ratio” value was “C (an enhancement ratio greater than 20)” (1 μM test compound) and “C (an enhancement ratio greater than 20)” (3 μM test compound).
On to `Cc1nc2cccc(O[C@H]3CC[C@H](C(C)(C)C)CC3)c2c(N)c1C(=O)O` [Compound 104], for which the “Sucrose Enhancement EC50 Ratio” value is, setting by setting: (1 μM test compound) “A (an enhancement ratio of greater than 1 and less than 10)”; (3 μM test compound) “C (an enhancement ratio greater than 20)”.
On to `CO[C@H]1CC[C@H](Oc2cccc3nc(C)c(C(=O)O)c(N)c23)CC1` [Compound 105], for which the “Sucrose Enhancement EC50 Ratio” value was “A (an enhancement ratio of greater than 1 and less than 10)” (1 μM test compound); “A (an enhancement ratio of greater than 1 and less than 10)” (3 μM test compound); “C (an enhancement ratio greater than 20)” (10 μM test compound).
With `CO[C@H]1CC[C@@H](Oc2cccc3nc(C)c(C(=O)O)c(N)c23)CC1` [Compound 106], the “Sucrose Enhancement EC50 Ratio” value by setting is: (1 μM test compound) “A (an enhancement ratio of greater than 1 and less than 10)”; (3 μM test compound) “A (an enhancement ratio of greater than 1 and less than 10)”; (10 μM test compound) “A (an enhancement ratio of greater than 1 and less than 10)”.
Take `Cc1nc2cccc(O[C@H]3CC[C@H](O)CC3)c2c(N)c1C(=O)O` [Compound 107]: the “Sucrose Enhancement EC50 Ratio” value is, setting by setting: (1 μM test compound) “A (an enhancement ratio of greater than 1 and less than 10)”; (3 μM test compound) “A (an enhancement ratio of greater than 1 and less than 10)”; (10 μM test compound) “B (an enhancement ratio from 10 to 20)”.
On to `Cc1nc2cccc(O[C@H]3CC[C@@H](O)CC3)c2c(N)c1C(=O)O` [Compound 108], for which the “Sucrose Enhancement EC50 Ratio” value by setting is: (1 μM test compound) “A (an enhancement ratio of greater than 1 and less than 10)”; (3 μM test compound) “A (an enhancement ratio of greater than 1 and less than 10)”; (10 μM test compound) “A (an enhancement ratio of greater than 1 and less than 10)”.
For `Cc1nc2cccc(O[C@H]3CC[C@H](CO)CC3)c2c(N)c1C(=O)O` [Compound 109], the “Sucrose Enhancement EC50 Ratio” value (1 μM test compound) was “B (an enhancement ratio from 10 to 20)”, the “Sucrose Enhancement EC50 Ratio” value (3 μM test compound) is listed as “C (an enhancement ratio greater than 20)” and the “Sucrose Enhancement EC50 Ratio” value (10 μM test compound) was “C (an enhancement ratio greater than 20)”.
Regarding `CCc1nc2cccc(OC3CCCCC3)c2c(N)c1C(=O)O` [Compound 200], the “Sucrose Enhancement EC50 Ratio” value runs as follows: (1 μM test compound) “A (an enhancement ratio of greater than 1 and less than 10)”; (3 μM test compound) “A (an enhancement ratio of greater than 1 and less than 10)”; (10 μM test compound) “A (an enhancement ratio of greater than 1 and less than 10)”.
With `CCc1nc2cccc(O[C@H]3CC[C@@H](C)CC3)c2c(N)c1C(=O)O` [Compound 202], the “Sucrose Enhancement EC50 Ratio” value is, setting by setting: (1 μM test compound) “A (an enhancement ratio of greater than 1 and less than 10)”; (3 μM test compound) “A (an enhancement ratio of greater than 1 and less than 10)”; (10 μM test compound) “A (an enhancement ratio of greater than 1 and less than 10)”.
For the compound `CCc1nc2cccc(OC3CCC(C)(C)CC3)c2c(N)c1C(=O)O` [Compound 203], the “Sucrose Enhancement EC50 Ratio” value (1 μM test compound) was “A (an enhancement ratio of greater than 1 and less than 10)”; the “Sucrose Enhancement EC50 Ratio” value (3 μM test compound) is “A (an enhancement ratio of greater than 1 and less than 10)”; the “Sucrose Enhancement EC50 Ratio” value (10 μM test compound) is listed as “B (an enhancement ratio from 10 to 20)”.
On to `CCc1nc2cccc(O[C@H]3CC[C@H](C(C)(C)C)CC3)c2c(N)c1C(=O)O` [Compound 204], for which the “Sucrose Enhancement EC50 Ratio” value reads like this: (1 μM test compound) “A (an enhancement ratio of greater than 1 and less than 10)”; (3 μM test compound) “A (an enhancement ratio of greater than 1 and less than 10)”; (10 μM test compound) “A (an enhancement ratio of greater than 1 and less than 10)”.
On to `CCc1nc2cccc(O[C@H]3CC[C@H](COC)CC3)c2c(N)c1C(=O)O` [Compound 205], for which the “Sucrose Enhancement EC50 Ratio” value is “A (an enhancement ratio of greater than 1 and less than 10)” (1 μM test compound); “B (an enhancement ratio from 10 to 20)” (3 μM test compound); “B (an enhancement ratio from 10 to 20)” (10 μM test compound). The “Sucralose Enhancement EC50 Ratio” value (10 μM test compound) is listed as “B (an enhancement ratio from 10 to 20)”.
Turning to `CCc1nc2cccc(O[C@H]3CC[C@H](CO)CC3)c2c(N)c1C(=O)O` [Compound 206], the “Sucrose Enhancement EC50 Ratio” value is, setting by setting: (1 μM test compound) “A (an enhancement ratio of greater than 1 and less than 10)”; (3 μM test compound) “A (an enhancement ratio of greater than 1 and less than 10)”; (10 μM test compound) “A (an enhancement ratio of greater than 1 and less than 10)”.
Take `CCCc1nc2cccc(O[C@H]3CC[C@H](C)CC3)c2c(N)c1C(=O)O` [Compound 207]: the “Sucrose Enhancement EC50 Ratio” value (1 μM test compound) is “A (an enhancement ratio of greater than 1 and less than 10)”; the “Sucrose Enhancement EC50 Ratio” value (3 μM test compound) was “A (an enhancement ratio of greater than 1 and less than 10)”; the “Sucrose Enhancement EC50 Ratio” value (10 μM test compound) is “A (an enhancement ratio of greater than 1 and less than 10)”.
As to `CCCc1nc2cccc(OC3CCC(C)(C)CC3)c2c(N)c1C(=O)O` [Compound 208], the “Sucrose Enhancement EC50 Ratio” value is “A (an enhancement ratio of greater than 1 and less than 10)” (1 μM test compound); “A (an enhancement ratio of greater than 1 and less than 10)” (3 μM test compound); “A (an enhancement ratio of greater than 1 and less than 10)” (10 μM test compound).
As to `Cc1nc2cccc(O[C@H]3CC[C@H](NC(=O)COCC(C)(C)C)CC3)c2c(N)c1C(=O)O` [Compound 301, 4-Amino-2-methyl-5-((trans-4-(2-(neopentyloxy)acetamido)cyclohexyl)oxy) quinoline-3-carboxylic acid], the “Sucrose Enhancement EC50 Ratio” value (1 μM test compound) is “B (an enhancement ratio from 10 to 20)”. In addition, for the setting “3 μM test compound”, the “Sucralose Enhancement EC50 Ratio” value is on record as “B (an enhancement ratio from 10 to 20)” and the “Sucrose Enhancement EC50 Ratio” value is “B (an enhancement ratio from 10 to 20)”.
In the case of `Cc1nc2cccc(O[C@H]3CC[C@H](N)CC3)c2c(N)c1C(=O)O.Cl` [Compound 302, 4-Amino-5-((trans-4-aminocyclohexyl)oxy)-2-methylquinoline-3-carboxylic acid (HCl salt)], the “Sucrose Enhancement EC50 Ratio” value by setting is: (1 μM test compound) “A (an enhancement ratio of greater than 1 and less than 10)”; (3 μM test compound) “A (an enhancement ratio of greater than 1 and less than 10)”.
With `Cc1nc2cccc(O[C@H]3CC[C@H](NC(=O)CO)CC3)c2c(N)c1C(=O)O` [Compound 303], the “Sucrose Enhancement EC50 Ratio” value is, setting by setting: (1 μM test compound) “A (an enhancement ratio of greater than 1 and less than 10)”; (3 μM test compound) “A (an enhancement ratio of greater than 1 and less than 10)”; (10 μM test compound) “B (an enhancement ratio from 10 to 20)”. For the setting “10 μM test compound”, the “Sucralose Enhancement EC50 Ratio” value was “A (an enhancement ratio of greater than 1 and less than 10)”.
